Measurements published in patent publication US12570697B2, “Cyclic peptide useful in the treatment of cancer” (Syntherix Limited, priority 2019, dated 2026).
Blank lines part the entries; values can stand above or below the compound they belong to. Ends that are not written are not given here.

Assays:
MRC-5 cells = conditions: in vitro; WO 2016/020437; cited from earlier work
[1] = system: RT112 bladder cancer cell line; conditions: WO 2016/020437; cited from earlier work
NCI-H460 cells [2] = test: NCI-H460 cell viability assay, glycosylated versus unglycosylated peptide (Example 4); format: cell-based, human; conditions: 0.2 μl Nanocin-Pro per well
Procedure: The inventor next undertook testing to determine whether the cytotoxicity of the peptides of the invention could be increased by glycosylation of the peptides. NCI-H460 cell viability assays were performed to compare the effect of a glycosylated clipped peptide (HILRa-Glu-01) versus the un-glycosylated version (HILRa-CL-17, HILRa-CL-17 was used in this study as a 1:1:1 mix of the three isomers HILRa-CL-17A, HILRa-CL-17B and HILRa-CL-17C).
Assays were performed in the presence and absence of the peptide transfection agent Nanocin-Pro.
The following protocol was used: • 1) NCI-H460 cells were grown in Ham's F12 media supplemented with 10% FBS. • 2) Cells were harvested and seeded into 96-well plates at 500 cells per well. • 3) HILRa peptides were diluted 1:2 from DMSO stock solutions to generate a 9-point dose range from a top concentration of 300 μM. […] Nanocin-Pro was used at a final assay concentration of 0.2 μl per well. • 5) Cells were grown in the presence of peptide for 96 hours at 37° C., 5% CO2 in a humidified atmosphere. • 6) After 96 h, Alamar blue 10% (v/v) was added, incubated for a further 4 h and fluorescent product detected using a BMG FLUOstar plate reader. • 7) Media only background readings were subtracted before data was analysed using a 4-parameter logistic equation in GraphPad Prism.

NCI-H460 cells [3] = test: viability assay of CLIP cyclised peptides on NCI-H460 cells (Example 3, Table 2); format: cell-based, human; conditions: for cytotoxic activity against NCIH460 cells (in words): with and without Nanocin-PRO
Procedure: The following protocol was used: • 1) NCI-H460 cells were grown in Ham's F12 media supplemented with 10% FBS. • 2) Cells were harvested and seeded into 96-well plates at 500 cells per well. • 3) Peptides were diluted 1:2 from DMSO stock solutions to generate a 9-point dose range from a top concentration of 300 μM. Final DMSO concentration was constant at 1% (v/v). • 4) In line with the supplied Nanocin-PRO protocol, diluted peptides were incubated with Nanocin-PRO in media for 20 minutes prior to addition to cells. Nanocin-PRO was used at a final assay concentration of 0.2 μl per well. • 5) Cells were grown in the presence of peptide for 96 hours at 37° C., 5% CO2 in a humidified atmosphere. • 6) After 96 h, Alamar blue 10% (v/v) was added, incubated for a further 4 h and fluorescent product detected using a BMG FLUOstar plate reader. • 7) Media only background readings were subtracted before data was analysed using a 4-parameter logistic equation in GraphPad Prism.
Viability assays of the CLIP cyclised peptides were performed to examine the effect of four HILRa clipped peptides on the viability of NCIH460 cells (up to three isomers for each of the peptides). […] Results for HILRa 16A, 16B, 16C and HILRa 17A, 17B and 17C are depicted in FIG. 2.
Assays were performed in the presence and absence of the peptide transfection reagent Nanocin-PRO.

[4] = system: H460 human non-small cell lung cancer cell lines; conditions: cited from earlier work
[5] = system: human non-small cell lung cancer cells (NCIH-460); test: killing of NCIH-460 cells by CLIPS-cyclised peptides of different warhead length (Table 1); format: cell-based
Procedure: The inventor undertook testing of the effect of various peptides which were cyclised using CLIPS technology on the killing of human non-small cell lung cancer cells (NCIH-460) in vitro. For each of the peptides, between two and four isomer fractions were received, giving a total of 12 peptide entities tested.
The following warhead lengths, obtained by adding flanking sarcosine residues, were tested: […]

Compound: PRGPRPVWWRRWWRRWW [HILR-PRO-25]
- lethality in MRC-5 cells (MRC-5 cells): without lethality
- IC50 [1]: 10 µM

Compound: Ac-C[Dac]R[Sar][Nap]R[Nap]C-NH2 [HILRa-CL-17]
- activity in the presence of Nanocin-PRO compared to its absence (NCI-H460 cells [2]): much higher activity
- cytotoxic activity against NCIH460 cells (in words) (NCI-H460 cells [3]): greater potency than HILRa-CL-15
- cytotoxic activity against NCIH460 cells (in words) (NCI-H460 cells [3]; listed as HILRa-CL17): showed activity

Compound: PRGPRPVALKLALKLAL [HILR-001]
- IC50 ([4]; as described in WO 2009/112536): 200 µM
- killing of H460 cells versus primary diploid human fibroblasts, keratinocytes or MRC5 cells ([4]; in vitro, WO 2009/112536): selective killing

- IC50 (NCI-H460 cells [3]; Homo sapiens, NCI-H460, Paclitaxel control, No Nanocin-PRO column): 0.00495 µM
Compound: CC(=O)O[C@H]1C(=O)[C@@]2(C)[C@H]([C@H](OC(=O)c3ccccc3)[C@]3(O)C[C@H](OC(=O)[C@H](O)[C@@H](NC(=O)c4ccccc4)c4ccccc4)C(C)=C1C3(C)C)[C@]1(OC(C)=O)CO[C@@H]1C[C@@H]2O [Paclitaxel, reference compound]
- IC50 ([5]; Homo sapiens, NCI-H460, Paclitaxel control, printed in the 0.2 μl Nanocin-PRO per well column): 0.0074 µM

Compound: Ac-CPRGPRPC-NH2 [HILRa-CL-01, CLIPS-cyclised peptide]
- % inhibition at 1 mM ([5]; 0.2 μl Nanocin-PRO per well): 12.9%
- % inhibition at 1 mM ([5]; 0.2 μl Nanocin-PRO per well, listed as ‘clipped’ Pro-Arg-Gly-Pro-Arg-Pro warhead): over 10%
- % inhibition at 1 mM ([5]; No Nanocin-PRO): 0.0%

Compound: Ac-CPKGPKPC-NH2 [HILRa-CL-10]
- % inhibition at 1 mM ([5]; 0.2 μl Nanocin-PRO per well): 0.8%
- % inhibition at 1 mM ([5]; No Nanocin-PRO): 2.2%

Compound: Ac-C[Sar][Sar]PKGPKP[Sar][Sar]C-NH2 (CXXPKGPKPXXC; N-acetyl; C-amide; sarcosines; HILRa-CL-12 Synthesized; Sar (2)..(2) X = Sarcosine; Sar (3)..(3) X = Sarcosine; Sar (10)..(10) X = Sarcosine; Sar (11)..(11) X = Sarcosine)
- % inhibition at 1 mM ([5]; 0.2 μl Nanocin-PRO per well): 0.8%
- % inhibition at 1 mM ([5]; No Nanocin-PRO): 0.0%
